Assay results: patent publication US5091523A (priority 1990, dated 1992)
≈ marks a conversion by molar mass, not a printed value. Where two headings read alike, the source gives them in different places.

What was measured:
MDA-MB-231 cells [1] = test: Inhibition of the rate of cell proliferation; assay type: cell-based, human; settings: for effect on the rate of cell proliferation / cell population kinetics: MDA-MB-231 (FIG. 3)
From the text: (§1) Since a major use of analogues would be for the treatment of this disease, in vitro screening against human breast cancer cell lines was investigated. Two cell lines were investigated. […] The MCF-7 cell line retains estrogen receptor expression, has an absolute requirement for estrogen to form tumors in nude mice, responds to antiestrogen therapy and is more representative of tumors with a better prognosis.
(§2) The interpretation of the effects of cytotoxic drugs on the rate of cell proliferation is a more difficult endpoint to interpret. For example, a cytotoxic agent may apparently reduce the rate of cell growth by killing a proportion of the cells. Alternatively, all the cells in the population may be growth arrested but not killed. Both of these series of events could produce identical growth curves.

[2] = test system: human breast cancer cell lines; test: Conclusion over all four in vitro endpoints; assay type: cell-based
From the text: as §1
(§3) The cytotoxic effects of Mitomycin-C are largely the result of its interactions with DNA. Consequently, the ability of Mitomycin-C and its analogues to inhibit the rate of incorporation of [^3 H] deoxythymidine into DNA was initially determined. Deoxythymidine is an essential precursor for the synthesis of DNA. The experiments were performed as described by Clarke et al., Br. J. Cancer 51: 365-369 (1985).
as §2
Consequently, the most accurate methods for determining cell kill measure the ability of a single cell to produce a clone of 50 or more cells (equivalent to six or more divisions). […]

[3] = test system: MDA-MB-231 human breast tumor cell line; test: Inhibition of DNA synthesis ([^3 H] deoxythymidine incorporation), MDA-MB-231; assay type: cell-based; settings: for inhibition of DNA synthesis: MDA-MB-231, pharmacologically relevant concentrations (FIG. 1)
From the text: as §1, §3

[4] = test system: human breast cancer cell lines; assay type: cell-based; settings: soft agar; for effect on anchorage-independent colony formation / cell survival: two assays (FIG. 5)
From the text: as §1
The anchorage-independent assay ensures that the cells grow in suspension in a soft agar solution. Thus, cells must retain both their basal reproductive integrity and their ability to grow in suspension. The data in FIG. 5 represents the results of two anchorage-independent colony formation assays. The assays were performed as described by Clarke et al., J. Endocrinol. 122: 331-340 (1989).

MDA-MB-231 cells [5] = test: Anchorage-dependent colony formation; assay type: cell-based, human
From the text: as §1
Consequently, the most accurate methods for determining cell kill measure the ability of a single cell to produce a clone of 50 or more cells (equivalent to six or more divisions). Two clonogenic assays were utilized. The anchorage-dependent assay provides the cells with a solid plastic substrate for attachment. The experiments were preformed as described by van den Berg et al. (1981), supra.

[6] = test system: MCF-7 human breast tumor cell line; test: Inhibition of DNA synthesis ([^3 H] deoxythymidine incorporation), MCF-7; assay type: cell-based; settings: for inhibition of DNA synthesis: MCF-7, pharmacologically relevant concentrations (FIG. 2)
From the text: as §1, §3

[7] = Host toxicity (preliminary data); assay type: in vivo, mice; settings: for mortality: mouse, in vivo, one ip injection, read-out: fatalities
From the text: Further, in vivo testing will be performed in two parts. Firstly, the host toxicity of the analogues in comparison with the parent drug will be tested. The concentration required to kill approximately 10% of a population of mice will then be determined. Histopathological analysis will determine the effect of drug treatment on tissues and organs. Analysis of white blood cell counts will provide information on hematopoietic toxicity. […] 80% and 100% fatalities were observed following one intraperitoneal injection of 30 and 40 mg/kg MC-77 respectively.

[8] = test system: murine and human neoplasms; settings: preclinical and clinical studies; cited from earlier work
P388 leukemia [9] = test: Murine P388 leukemia antitumor activity (Example 14, Table 5); assay type: in vivo, murine (CD2F1 male mice)
From the text: T is the mean survival days of mice receiving drug=treated mice
C is the mean survival days of the mice receiving drug vehicle.

bone marrow = settings: preclinical and clinical studies; cited from earlier work
P388 leukemia [10] = settings: cited from earlier work
[11] = test system: Gram-negative strain of bacteria (HB101); test: Antibacterial activity, agar dilution M.I.C. (Example 12, Table 4); assay type: cell-based; settings: read-out: M.I.C. Gram-negative Bacteria
Description: Minimum inhibition concentration (M.I.C.) against a Gram-negative strain of bacteria (HB101) was estimated by the dilution method, with graded concentrations of drug added to agar at 37°-40° C. […] The agar, containing drug, quickly solidified at room temperature, and the bacteria were plated immediately.

metastatic breast cancer = settings: cited from earlier work
P388 leukemia [12] = test: Murine P388 leukemia antitumor activity (Example 11, Table 2); assay type: in vivo, murine (CD2F1 male mice); settings: for % ILS (percentage increased life span): Day 1, P388 leukemia; for Mean Survival: control 10.0
Description: The murine P388 leukemia system, maintained intraperitoneally in female DBA/2 mice, was used to evaluate antitumor activity.
The P388 antileukemic activity of the test compound was assessed by mean survival days and percentage increased life span (ILS). The % ILS was calculated as follows: […]
where T is the mean survival days of the treated mice and C is the mean survival days of the untreated mice.

[13] = test system: peripheral leukocyte (WBC); test: In vivo murine WBC depression / bone marrow toxicity (Table 3); set-up: species or system normal CD2F1 male mice
Description: Blood samples obtained were diluted in 9.98 ml of Isoton (a neutral, isotonic buffer solution) and counted in a Coulter counter after lysis with Zapoglobin (an enzyme solution which lyses red blood cells, but not white blood cells). WBC counts are expressed as a percentage of values from control mice receiving drug vehicle only.

[14] = Weight loss resultant from drug toxicity (Example 14, Table 5)
Description: Each compound was administered intraperitoneally to groups of CD2F1 male mice on Day 1 following intraperitoneal implantation of 1×10^6 P388 leukemia cells.
Weight loss resultant from drug toxicity was also determined.

CO[C@@]12[C@H](COC(N)=O)C3=C(C(=O)C(C)=C(NCCCC(=O)N[C@@H]4O[C@H](COC(C)=O)[C@@H](OC(C)=O)[C@H](OC(C)=O)[C@H]4NC(C)=O)C3=O)N1C[C@@H]1N[C@@H]12 [MC-62, 7-{3-[(2-acetamido-3,4,6-tri-O-acetyl-β-D-glucopyranosyl)-amino]carbonylpropylamino}-9-methoxymitosane]
effect on the rate of cell proliferation / cell population kinetics (MDA-MB-231 cells [1]): failed to markedly influence the rate of MDA-MB-231 growth | antineoplastic potential (all four endpoints) [2]: significantly reduced antineoplastic potential | potency in inhibition of DNA synthesis relative to Mitomycin-C and MC-77 ([3]; MDA-MB-231): significantly less potent than both Mitomycin-C and MC-77 | effect on anchorage-independent colony formation / cell survival [4]: consistently fails to influence colony formation | effect on anchorage-dependent colony formation (MDA-MB-231 cells [5]; MDA-MB-231 (FIG. 4)): did not significantly influence colony formation | potency in inhibition of DNA synthesis relative to Mitomycin-C and MC-77 ([6]; MCF-7): significantly less potent than both Mitomycin-C and MC-77

CO[C@@]12[C@H](COC(N)=O)C3=C(C(=O)C(C)=C(Nc4ccc(O[C@@H]5O[C@H](COC(C)=O)[C@@H](OC(C)=O)[C@H](OC(C)=O)[C@H]5OC(C)=O)cc4)C3=O)N1C[C@@H]1N[C@@H]12 [MC-77, 7-{[4-(2,3,4,6-tetra-O-acetyl-β-D-glucopyranosyl)oxyphenyl]amino}-9-methoxymitosane]
effect on the rate of cell proliferation / cell population kinetics (MDA-MB-231 cells [1]): significantly inhibited the rate of cell proliferation | cell number relative to starting cell number (MDA-MB-231 cells [1]; MDA-MB-231, 1.5 uM): reduced cell number below starting cell number | cytotoxic potential compared with the parent drug (all four endpoints) ([2]; vs Mitomycin-C): marked improvement in the cytotoxic potential of between two and five fold | fold less toxic than the parent drug ([7]; inconclusive preliminary data, vs Mitomycin-C): up to two fold less toxic than the parent drug | mortality ([7]; 30 mg/kg, preliminary, one experiment): 80% | mortality ([7]; 40 mg/kg, preliminary, one experiment): 100% | toxicity compared with Mitomycin-C ([7]; preliminary): no more toxic when compared with Mitomycin-C | dose response curve for toxicity ([7]; preliminary, one experiment): retained the steep dose response curve for toxicity | inhibition of DNA synthesis compared with the parent compound ([3]; MDA-MB-231, equimolar concentrations, vs Mitomycin-C): two to five fold greater inhibition of DNA synthesis | inhibition of DNA synthesis [3]: significant and dose dependent inhibition of DNA synthesis | effect on anchorage-independent colony formation / cell survival [4]: dose dependent reductions in cell survival | cytotoxicity in anchorage-independent assay compared with Mitomycin-C ([4]; vs Mitomycin-C): two to five fold more cytotoxic | reduction in anchorage-dependent colony forming ability (MDA-MB-231 cells [5]; MDA-MB-231, 0.25 uM): significant reduction in colony forming ability | inhibition of anchorage-dependent colony formation compared with Mitomycin-C (MDA-MB-231 cells [5]; MDA-MB-231, 0.25 uM, vs equimolar Mitomycin-C, estimated): approximately two to five fold greater | inhibition of DNA synthesis compared with the parent compound ([6]; MCF-7, equimolar concentrations, vs Mitomycin-C): two to five fold greater inhibition of DNA synthesis | inhibition of DNA synthesis [6]: significant and dose dependent inhibition of DNA synthesis

CO[C@@]12[C@H](COC(N)=O)C3=C(C(=O)C(C)=C(N)C3=O)N1C[C@@H]1N[C@@H]12 [Mitomycin C, mitomycin C, reference compound]
effect on the rate of cell proliferation / cell population kinetics (MDA-MB-231 cells [1]): significantly inhibited the rate of cell proliferation | activity against murine and human neoplasms [8]: activity against a variety of murine and human neoplasms | % ILS (P388 leukemia [9]; 5 mg/kg ip): 83 | bone marrow toxicity (bone marrow): severe, delayed bone marrow toxicity | optimal single ip P388 therapeutic dose (P388 leukemia [10]): 4.5 to 5.5 mg/kg | inhibition of DNA synthesis [3]: significant and dose dependent inhibition of DNA synthesis | effect on anchorage-independent colony formation / cell survival [4]: dose dependent reductions in cell survival | MIC ([11]; HB101, agar, 24 hours at 37° C.): 0.3 to 0.5 µg/mL (≈ 0.897 to 1.5 µM) | reduction in anchorage-dependent colony forming ability (MDA-MB-231 cells [5]; MDA-MB-231, 0.25 uM): significant reduction in colony forming ability | inhibition of DNA synthesis [6]: significant and dose dependent inhibition of DNA synthesis | objective responses in patients (metastatic breast cancer): significant percentage of objective responses

CO[C@@]12[C@H](COC(N)=O)C3=C(C(=O)C(C)=C(N[C@H]4C(O)O[C@H](CO)[C@@H](O)[C@@H]4O)C3=O)N1C[C@@H]1N[C@@H]12 (some centres unmarked) [N^7-(2-deoxyglucopyranosyl)mitomycin C]
% ILS (percentage increased life span) (P388 leukemia [12]; 5 mg/kg ip): 42% | Mean Survival (P388 leukemia [12]; 5 mg/kg ip): 14.2 days | % ILS (percentage increased life span) (P388 leukemia [12]; 13.5 mg/kg ip): 61% | Mean Survival (P388 leukemia [12]; 13.5 mg/kg ip): 16.1 days | activity against the murine P388 tumor system (P388 leukemia [12]; summary): significant activity against the murine P388 tumor system | MIC ([11]; 24 h): 1.66 to 3.3 µg/mL (≈ 3.34 to 6.65 µM) | WBC Count on Day 3 (as percent of control) ([13]; 13.5 mg/kg ip, normal CD2F1 male mice, Day 3): 94% | bone marrow toxicity as determined by depression of peripheral leukocyte (WBC) count ([13]; summary, at active doses): no significant bone marrow toxicity

CO[C@@]12[C@H](COC(N)=O)C3=C(C(=O)C(C)=C(Nc4ccc(OP(=O)(O)O)cc4)C3=O)N1C[C@@H]1N[C@@H]12 [N^7-(4-phosphatophenyl)mitomycin C]
% ILS (P388 leukemia [9]; 15 mg/kg ip): 84 | 30-day survivor (P388 leukemia [9]; 30 mg/kg ip): 1/5 | % ILS (P388 leukemia [9]; 30 mg/kg ip): > 150 | weight loss ([14]; 15 mg/kg ip): No weight loss | Average weight loss ([14]; 30 mg/kg ip): 8% | body weight decrease for all mice ([14]; 45 mg/kg ip, by Day 6 post-drug injection): 20-24%
